Reference: the kinase profiling compilation of Christmann-Franck et al. (2016)

Assays:
[1] = target: ABL1 (human) (UniProt P00519); assay: HTRF
[2] = target: BLK (human) (UniProt P51451); assay: HTRF
[3] = target: BTK (human) (UniProt Q06187); assay: HTRF
[4] = target: CSF1R (human) (UniProt P07333); assay: HTRF
[5] = target: EPHA2 (human) (UniProt P29317); assay: HTRF
[6] = target: ERBB4 (human) (UniProt Q15303); assay: HTRF
[7] = target: FER (human) (UniProt P16591); assay: HTRF
[8] = target: FGFR1 (human) (UniProt P11362); assay: HTRF
[9] = target: FGFR3 (human) (UniProt P22607); assay: HTRF
FGFR3 (human), sequence (P22607 whole entry, looked up): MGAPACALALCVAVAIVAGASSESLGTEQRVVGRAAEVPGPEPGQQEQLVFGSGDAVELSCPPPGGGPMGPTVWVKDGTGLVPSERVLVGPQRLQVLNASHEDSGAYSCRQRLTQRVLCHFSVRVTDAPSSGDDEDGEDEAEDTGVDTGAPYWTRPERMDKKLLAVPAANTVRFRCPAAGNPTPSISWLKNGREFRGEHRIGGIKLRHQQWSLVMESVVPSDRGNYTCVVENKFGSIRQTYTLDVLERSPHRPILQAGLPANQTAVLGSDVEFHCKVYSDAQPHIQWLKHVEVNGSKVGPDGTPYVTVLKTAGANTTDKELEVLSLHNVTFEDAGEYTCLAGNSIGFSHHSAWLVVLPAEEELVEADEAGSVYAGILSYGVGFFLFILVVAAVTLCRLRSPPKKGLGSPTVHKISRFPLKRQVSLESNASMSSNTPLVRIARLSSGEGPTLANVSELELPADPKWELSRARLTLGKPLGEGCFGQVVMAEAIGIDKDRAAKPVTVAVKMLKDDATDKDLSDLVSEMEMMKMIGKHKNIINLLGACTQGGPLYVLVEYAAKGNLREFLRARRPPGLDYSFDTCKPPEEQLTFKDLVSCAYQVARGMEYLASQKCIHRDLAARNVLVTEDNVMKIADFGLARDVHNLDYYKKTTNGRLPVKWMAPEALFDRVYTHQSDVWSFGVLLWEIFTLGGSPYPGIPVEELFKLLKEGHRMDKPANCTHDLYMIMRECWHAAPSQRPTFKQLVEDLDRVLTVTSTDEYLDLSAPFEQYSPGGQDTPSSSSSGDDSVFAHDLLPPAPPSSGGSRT

[10] = target: FLT1 (human) (UniProt P17948); assay: HTRF
FLT1 (human), sequence (P17948 whole entry, looked up): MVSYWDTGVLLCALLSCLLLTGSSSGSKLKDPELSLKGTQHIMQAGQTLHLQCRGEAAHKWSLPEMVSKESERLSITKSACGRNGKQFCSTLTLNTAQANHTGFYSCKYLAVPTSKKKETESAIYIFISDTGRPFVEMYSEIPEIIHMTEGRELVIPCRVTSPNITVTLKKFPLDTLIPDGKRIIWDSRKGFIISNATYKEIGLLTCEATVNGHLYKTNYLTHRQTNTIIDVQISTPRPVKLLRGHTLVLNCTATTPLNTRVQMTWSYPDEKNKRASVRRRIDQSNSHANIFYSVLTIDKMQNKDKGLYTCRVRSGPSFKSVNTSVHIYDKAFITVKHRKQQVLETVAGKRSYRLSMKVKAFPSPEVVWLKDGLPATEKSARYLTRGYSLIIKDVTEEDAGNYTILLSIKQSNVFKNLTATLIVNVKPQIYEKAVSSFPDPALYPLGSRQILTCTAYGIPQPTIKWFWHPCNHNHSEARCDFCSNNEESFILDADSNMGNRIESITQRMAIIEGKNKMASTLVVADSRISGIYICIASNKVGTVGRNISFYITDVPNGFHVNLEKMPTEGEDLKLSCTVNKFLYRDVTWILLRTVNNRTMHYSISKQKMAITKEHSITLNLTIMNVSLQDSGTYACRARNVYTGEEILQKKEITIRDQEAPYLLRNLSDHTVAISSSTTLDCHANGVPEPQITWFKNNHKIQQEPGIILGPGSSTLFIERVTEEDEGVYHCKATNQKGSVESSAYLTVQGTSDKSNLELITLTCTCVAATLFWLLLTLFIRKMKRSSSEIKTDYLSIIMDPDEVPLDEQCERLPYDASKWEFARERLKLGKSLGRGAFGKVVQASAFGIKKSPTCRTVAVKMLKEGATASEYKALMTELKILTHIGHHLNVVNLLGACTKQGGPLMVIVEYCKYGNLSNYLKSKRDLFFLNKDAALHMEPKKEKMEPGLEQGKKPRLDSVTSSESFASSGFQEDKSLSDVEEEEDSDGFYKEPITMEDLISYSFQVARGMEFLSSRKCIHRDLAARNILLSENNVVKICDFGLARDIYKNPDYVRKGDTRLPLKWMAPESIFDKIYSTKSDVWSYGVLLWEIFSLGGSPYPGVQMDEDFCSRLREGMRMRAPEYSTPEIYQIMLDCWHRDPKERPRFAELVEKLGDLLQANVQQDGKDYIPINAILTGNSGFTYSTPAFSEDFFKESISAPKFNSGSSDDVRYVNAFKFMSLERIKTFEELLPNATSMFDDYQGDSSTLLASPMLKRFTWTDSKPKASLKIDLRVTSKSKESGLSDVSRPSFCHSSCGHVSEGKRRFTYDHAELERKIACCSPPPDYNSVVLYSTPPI

[11] = target: FLT3 (human) (UniProt P36888); assay: HTRF
[12] = target: FLT4 (human) (UniProt P35916); assay: HTRF
[13] = target: FRK (human) (UniProt P42685); assay: HTRF
[14] = target: FYN (human) (UniProt P06241); assay: HTRF
[15] = target: IGF1R (human) (UniProt P08069); assay: HTRF
[16] = target: INSR (human) (UniProt P06213); assay: HTRF
[17] = target: KDR (human) (UniProt P35968); assay: HTRF
[18] = target: KIT (human) (UniProt P10721); assay: HTRF
[19] = target: LCK (human) (UniProt P06239); assay: HTRF
[20] = target: LYN (human) (UniProt P07948); assay: HTRF
[21] = target: MATK (human) (UniProt P42679); assay: HTRF
[22] = target: MET (human) (UniProt P08581); assay: HTRF
[23] = target: NTRK1 (human) (UniProt P04629); assay: HTRF
[24] = target: NTRK2 (human) (UniProt Q16620); assay: HTRF
[25] = target: RET (human) (UniProt P07949); assay: HTRF
RET (human), sequence (P07949 whole entry, looked up): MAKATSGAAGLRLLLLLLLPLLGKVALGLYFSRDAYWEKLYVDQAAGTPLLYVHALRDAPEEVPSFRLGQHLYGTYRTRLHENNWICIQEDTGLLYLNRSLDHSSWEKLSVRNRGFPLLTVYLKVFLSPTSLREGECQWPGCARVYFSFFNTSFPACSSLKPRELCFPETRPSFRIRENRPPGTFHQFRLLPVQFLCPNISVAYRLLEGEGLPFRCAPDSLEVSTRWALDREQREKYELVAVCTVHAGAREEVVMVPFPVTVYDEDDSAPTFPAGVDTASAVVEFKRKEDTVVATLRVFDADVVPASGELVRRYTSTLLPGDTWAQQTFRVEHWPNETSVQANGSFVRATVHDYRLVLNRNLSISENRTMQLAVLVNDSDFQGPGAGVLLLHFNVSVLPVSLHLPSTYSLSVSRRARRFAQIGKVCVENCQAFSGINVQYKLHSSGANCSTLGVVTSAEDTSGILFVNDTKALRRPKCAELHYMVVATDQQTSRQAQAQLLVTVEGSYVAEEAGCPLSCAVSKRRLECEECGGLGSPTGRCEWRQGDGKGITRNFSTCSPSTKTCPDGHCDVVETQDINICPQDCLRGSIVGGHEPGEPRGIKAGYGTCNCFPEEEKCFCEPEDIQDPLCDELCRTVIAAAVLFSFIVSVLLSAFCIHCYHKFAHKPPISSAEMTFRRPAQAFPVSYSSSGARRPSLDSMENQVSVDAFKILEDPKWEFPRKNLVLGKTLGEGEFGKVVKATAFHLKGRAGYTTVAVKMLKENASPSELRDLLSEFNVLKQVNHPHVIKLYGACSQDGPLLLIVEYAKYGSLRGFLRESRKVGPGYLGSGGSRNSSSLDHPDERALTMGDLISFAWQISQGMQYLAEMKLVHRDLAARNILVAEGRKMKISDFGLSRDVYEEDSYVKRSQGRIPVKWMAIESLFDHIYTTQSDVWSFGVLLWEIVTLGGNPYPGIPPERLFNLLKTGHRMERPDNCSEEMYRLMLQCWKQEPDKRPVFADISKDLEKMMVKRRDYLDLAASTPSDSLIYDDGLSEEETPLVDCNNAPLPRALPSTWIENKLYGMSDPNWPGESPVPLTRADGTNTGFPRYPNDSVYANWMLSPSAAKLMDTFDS

[26] = target: SRC (human) (UniProt P12931); assay: HTRF
[27] = target: SRMS (human) (UniProt Q9H3Y6); assay: HTRF
[28] = target: TYK2 JH1 JH2 (human) (UniProt P29597); assay: HTRF
[29] = target: TYRO3 (human) (UniProt Q06418); assay: HTRF
[30] = target: CDC7 (human) (UniProt O00311); assay: Flashplate
[31] = target: CDK1 (human) (UniProt P06493); assay: Flashplate
[32] = target: CSNK2A1 (human) (UniProt P68400); assay: Flashplate
[33] = target: DYRK3 (human) (UniProt O43781); assay: Flashplate
[34] = target: MAPKAPK2 (human) (UniProt P49137); assay: Flashplate
[35] = target: PAK1 (human) (UniProt Q13153); assay: Flashplate
[36] = target: PBK (human) (UniProt Q96KB5); assay: Flashplate
[37] = target: PIM2 (human) (UniProt Q9P1W9); assay: Flashplate
[38] = target: PLK1 (human) (UniProt P53350); assay: Flashplate
[39] = target: PRKAA1 (human) (UniProt Q13131); assay: Flashplate
[40] = target: PRKD2 (human) (UniProt Q9BZL6); assay: Flashplate
PRKD2 (human), sequence (Q9BZL6 whole entry, looked up): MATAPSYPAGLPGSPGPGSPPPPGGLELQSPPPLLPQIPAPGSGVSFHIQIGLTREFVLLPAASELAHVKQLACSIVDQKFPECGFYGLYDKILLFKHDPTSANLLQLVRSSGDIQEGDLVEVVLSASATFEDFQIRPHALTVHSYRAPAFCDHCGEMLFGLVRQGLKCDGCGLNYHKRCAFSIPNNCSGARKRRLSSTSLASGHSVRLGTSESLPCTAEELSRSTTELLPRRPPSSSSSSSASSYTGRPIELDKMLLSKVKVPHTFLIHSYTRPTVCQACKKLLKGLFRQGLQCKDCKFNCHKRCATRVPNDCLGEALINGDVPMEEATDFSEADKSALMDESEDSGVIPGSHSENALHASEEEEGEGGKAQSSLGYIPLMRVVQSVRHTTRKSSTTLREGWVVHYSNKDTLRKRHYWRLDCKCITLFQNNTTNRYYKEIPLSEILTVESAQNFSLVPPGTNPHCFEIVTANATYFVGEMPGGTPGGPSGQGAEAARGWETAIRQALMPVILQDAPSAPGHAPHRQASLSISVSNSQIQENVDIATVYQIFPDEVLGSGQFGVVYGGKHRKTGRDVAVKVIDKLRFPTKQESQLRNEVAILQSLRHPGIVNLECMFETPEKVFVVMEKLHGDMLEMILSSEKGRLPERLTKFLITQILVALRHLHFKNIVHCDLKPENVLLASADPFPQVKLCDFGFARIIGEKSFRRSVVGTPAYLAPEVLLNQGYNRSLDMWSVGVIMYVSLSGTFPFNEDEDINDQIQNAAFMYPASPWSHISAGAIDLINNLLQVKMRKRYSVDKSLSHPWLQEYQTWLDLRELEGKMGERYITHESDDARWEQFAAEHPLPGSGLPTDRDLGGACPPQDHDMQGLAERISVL

[41] = target: PRKX (human) (UniProt P51817); assay: Flashplate
[42] = target: RPS6KB1 (human) (UniProt P23443); assay: Flashplate

CSF1R (human), sequence (P07333 whole entry, looked up): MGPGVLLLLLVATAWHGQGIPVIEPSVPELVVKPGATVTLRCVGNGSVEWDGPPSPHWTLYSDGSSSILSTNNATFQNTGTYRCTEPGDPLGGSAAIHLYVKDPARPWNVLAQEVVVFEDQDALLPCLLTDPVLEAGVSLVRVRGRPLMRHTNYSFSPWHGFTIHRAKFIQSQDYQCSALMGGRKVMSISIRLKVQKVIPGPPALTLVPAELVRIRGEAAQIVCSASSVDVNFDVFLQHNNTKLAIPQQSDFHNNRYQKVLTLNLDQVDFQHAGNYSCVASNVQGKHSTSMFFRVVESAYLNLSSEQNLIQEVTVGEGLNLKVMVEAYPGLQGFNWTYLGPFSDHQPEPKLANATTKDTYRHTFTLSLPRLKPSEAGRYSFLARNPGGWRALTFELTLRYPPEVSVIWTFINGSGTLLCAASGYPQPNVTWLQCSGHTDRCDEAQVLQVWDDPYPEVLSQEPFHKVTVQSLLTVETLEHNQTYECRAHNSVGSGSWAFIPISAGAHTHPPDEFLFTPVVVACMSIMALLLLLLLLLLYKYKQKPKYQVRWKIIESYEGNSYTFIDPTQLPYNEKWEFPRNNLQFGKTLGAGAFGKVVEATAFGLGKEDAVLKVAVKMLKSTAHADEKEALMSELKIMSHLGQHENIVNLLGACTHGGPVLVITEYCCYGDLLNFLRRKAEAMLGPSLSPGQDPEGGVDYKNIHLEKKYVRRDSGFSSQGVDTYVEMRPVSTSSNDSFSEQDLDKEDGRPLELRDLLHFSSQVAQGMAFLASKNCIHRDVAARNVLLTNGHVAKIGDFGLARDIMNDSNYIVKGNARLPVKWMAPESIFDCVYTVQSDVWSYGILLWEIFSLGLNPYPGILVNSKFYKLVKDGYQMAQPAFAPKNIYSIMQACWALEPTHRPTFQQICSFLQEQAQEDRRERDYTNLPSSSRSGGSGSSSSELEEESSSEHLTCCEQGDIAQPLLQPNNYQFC

Ki [1]: > 631 nM
Ki [2]: 200 nM
Ki [3]: > 1260 nM
Ki [4]: 126 nM
Ki [5]: > 3160 nM
Ki [6]: 3980 nM
Ki [7]: 50.1 nM
Ki [8]: 251 nM
Ki [9]: 158 nM
Ki [10]: 200 nM
Ki [11]: 50.1 nM
Ki [12]: 15.8 nM
Ki [13]: 63.1 nM
Ki [14]: > 794 nM
Ki [15]: > 2000 nM
Ki [16]: 501 nM
Ki [17]: 631 nM
Ki [18]: 1260 nM
Ki [19]: 2000 nM
Ki [20]: 1000 nM
Ki [21]: 501 nM
Ki [22]: 501 nM
Ki [23]: 1260 nM
Ki [24]: 794 nM
Ki [25]: 63.1 nM
Ki [26]: > 2000 nM
Ki [27]: > 1580 nM
Ki [28]: 1260 nM
Ki [29]: 1000 nM
Ki [30]: 1000 nM
Ki [31]: 1000 nM
Ki [32]: 501 nM
Ki [33]: 316 nM
Ki [34]: > 7940 nM
Ki [35]: > 10000 nM
Ki [36]: 1000 nM
Ki [37]: 316 nM
Ki [38]: > 7940 nM
Ki [39]: > 1580 nM
Ki [40]: 158 nM
Ki [41]: > 1580 nM
Ki [42]: 126 nM
Compound: O=C1c2ccccc2-c2n[nH]c3cccc1c23
